Measurements from patent US20190209712A1, “HUMANIZED MURINE MODEL OF CHRONIC HEPATITIS B CONSTRUCTED USING STEM CELLS AND METHOD OF USING SAME” (Zhejiang University, priority 2017, published 2019).

System: HBV
Assay: Efficacy of and drug resistance to antiviral drugs in humanized rat model of chronic hepatitis B (HBV viral load)
Type: in vivo
Details: humanized rats with chronic hepatitis B; therapeutic dose; 1, 2, 4, 8, 12 and 24 weeks after treatment; FIG. 2
Description: The Study of Efficacy of and Drug Resistance to the Antiviral Drugs Using a Humanized Rat Model of Chronic Hepatitis B • 1. 200 humanized rats with chronic hepatitis B were randomly divided into four groups. There were no significant differences in age, gender, weight and baseline of HBV viral load among the groups. • 2. Therapeutic dose of commonly used antiviral drugs lamivudine, telbivudine, entecavir and tenofovir were administered to each of the four groups, respectively. • 3. At 1 week, 2 weeks, 4 weeks, 8 weeks, 12 weeks and 24 weeks after the treatment, the viral load of HBV in each group of rats was detected, respectively. • 4. Curves were plotted based on the viral load in each group at each time point. The difference between the groups was compared to evaluate the efficacy of and drug resistance to existing commonly used antiviral drugs.

| Compound | drop of the viral titer curves (viral load of HBV) |
| --- | --- |
| C=C1[C@H](CO)[C@@H](O)C[C@@H]1n1cnc2c(=O)[nH]c(N)nc21 [entecavir] | superior to those of the telbivudine group and the lamivudine group |
| C[C@H](Cn1cnc2c(N)ncnc21)OCP(=O)(O)O [tenofovir] | superior to those of the telbivudine group and the lamivudine group |
